# Measured values published in patent publication US12195551B2, “Combination of an ErbB-2/ErbB-3 bispecific antibody with endocrine therapy for breast cancer” (Merus N.V., priority 2017, dated 2025).
# “And” between values parts separate entries of the source, which are not always exact repeats. Identical values can stand only once. “Also recorded” adds a separate entry of the source.
# Tests used:
# HER3-PI3K complexes = assay: VeraTag assay HER3-PI3K complexes in MCF-7 xenograft tumors; assay type: in vivo, human; conditions: round 1
# Method: (§3) The initial VeraTag assay analysis (round 1) was performed with 3 tumors per group
# (§4) Prior to the VeraTag analysis, tumors were sectioned and stained with hematoxylin-eosin to determine the percentage of tumor content. Microlaser capture was used to grossly remove any non-tumor content. The initial round of analysis included the following five VeraTag assays: total HER2, total HER3, HER2:HER3 dimers, HER3-PI3K complexes and phosphorylated HER3.
# total HER2 = assay: VeraTag assay total HER2 in MCF-7 xenograft tumors; conditions: data from both rounds combined; 8 day treatment
# Method: (§5) Modulation of levels of total HER2, total HER3 and HER2:HER3 dimers in MCF-7 tumors after 8 day treatment period. […] 24 hours after the last dose, tumors were harvested, processed to FFPE and subjected to VeraTag analysis for the indicated assays. Five independent tumors per treatment group were used for the final analysis. A statistical t-test compared all groups independently. * indicates P<0.01.
# (§6) All formalin-fixed tumors from example 2 were processed to FFPE blocks. The initial VeraTag assay analysis (round 1) was performed with 3 tumors per group
# as §4
# (§7) The tumors analyzed in Round 1 that had scores close to the average value of the specific assays were included in Round 2 to estimate the inter-assay reproducibility and to ensure the data from the two independent experiments could be combined.
# [1] = system: MCF-7 human breast carcinoma; assay: Efficacy in nude mouse xenograft model of MCF-7 human breast carcinoma; assay type: in vivo; conditions: for % TGI (tumor growth inhibition): D25, relative to the control group, Faslodex 5.0 mg/animal, Tamoxifen 1 mg/animal; for % TGI (tumor growth inhibition) / median tumor volume: MCLA-128 25 mg/kg i.p.; for median tumor volume: D25, Faslodex 5.0 mg/animal s.c. qwk×5, Tamoxifen 1 mg/animal s.c. qod×15; for P relative to the control group: D25 tumor volumes, Mann-Whitney test; for anti-tumor efficacy / survival benefit (in words): MCF-7 nude mouse xenograft model; for Volume (mm^3) of xenograft MCF-7 tumors / Weight (mgs) of xenograft MCF-7 tumors: individual tumors of sampling groups 8-10 for pharmacodynamic analysis, 8 day treatment, harvested 24 hours after last dose
# Method: MCLA-128 was evaluated as monotherapy and in combination with the SERM Tamoxifen and SERD Fulvestrant (Faslodex®) for efficacy in a nude mouse xenograft model of estrogen responsive MCF-7 human breast carcinoma. The study design also included tumor collection for downstream analysis.
# Treatments began on D1 in mice with established subcutaneous MCF-7 tumors. The study endpoint was intended to be a tumor volume endpoint of 1000 mm3 45 days, whichever came first. […] Tumor regressions, mean tumor growth, and treatment tolerability also were considered.
# The animals were fed ad libitum water (reverse osmosis, 1 ppm Cl) and NIH 31 Modified and Irradiated Lab Diet® consisting of 18.0% crude protein, 6.0% crude fat, and 5.0% crude fiber. The mice were housed on irradiated Enrich-o'Cobs™ Laboratory Animal Bedding in static 85 microisolators on a 12-hour light cycle at […] (68-72° F.) and 40-60% humidity.
# Three days prior to tumor cell implantation, estrogen pellets (0.36 mg estradiol, 60-day release, Innovative Research of America, Sarasota, FL) were implanted subcutaneously between the scapulae of all test animals using a sterilized trocar.
# Xenografts were initiated with cultured MCF-7 human breast carcinoma cells. Tumor cells were grown to mid-log phase in RPMI-1640 medium containing 10% fetal bovine serum, 100 units/mL penicillin G, 100 μg/mL streptomycin sulfate, 2 mM glutamine, 10 mM HEPES, 0.075% sodium bicarbonate and 25 μg/mL gentamicin. On the day of tumor cell implant, the cells were trypsinized, pelleted, and resuspended in phosphate buffered saline (PBS) at a concentration of 1×10e8 cells/mL. Each test mouse received 1×10e7 MCF-7 cells implanted subcutaneously in the right flank, and tumor growth was monitored as their mean volume approached the desired 100 to 150 mm3 range.
# Nineteen days after tumor cell implantation, designated as D1 of the study, the mice were placed into six groups of 15 animals and four groups of six animals, Individual tumor volumes ranged from 75 to 196 mm3 and group mean tumor volumes of 134-137 mm3 on D1. Tumor weight was estimated with the assumption that 1 mg is equivalent to 1 mm3 of tumor volume.
# MCLA-128 was stored at 4° C., was provided pre-formulated at 2.5 mg/mL and ready to dose as 25 mg/kg in a 10 mL/kg dose volume, and was protected from light during storage and handling. Tamoxifen (Sigma-25 Aldrich. Lot No. WXBB5732V) was received as a powder and was stored at 4° C. protected from light. Each week, a 5 mg/mL dose solution was prepared in corn oil, and each mouse received 0.2 mL for a dose of 1 mg/animal. The dose solution was stored at 4° C. Fulvestrant tradename Faslodex® (AstraZeneca, Lot No. LV032, LW466, and LX432) was received as 50 mg/mL stock solution that was stored at 4° C. Each dosing day, the stock was diluted in corn oil to 25 mg/mL, and each mouse received 0.2 mL for a dose of 5 mg/animal.
# Groups 1 and 7 served as controls for efficacy and sampling, respectively, and received MCLA-128 vehicle intraperitoneally (i.p.) on D1, 4, 8, 11, 15, 18, 22, 25, and 29 and corn oil subcutaneously (s.c.) every other day for fifteen doses (qod×15). Groups 2 and 8 were administered MCLA-128 at 25 mg/kg, i.p., on the same schedule as MCLA-128 vehicle. Groups 3 and 9 were administered Faslodex® at 5.0 mg/animal, s.c., once weekly for five weeks (qwk×5). Group 4 was administered Tamoxifen at 1 mg/animal, s.c., qod×15. Groups 5 and 10 received MCLA-128 and Faslodex®, on the regimens described above. Group 6 received MCLA-128 and Tamoxifen on the regimens described above.
# MCLA-128 was administered at a 10 mL/kg dose volume, scaled to the individual body weight of each animal.
# HER2 = assay: Reverse phase protein array (RPPA) in MCF-7 tumor xenografts: HER2; assay type: in vivo, human; conditions: vs vehicle group, one-way ANOVA
# Description: (§1) FIG. 9. Reverse phase protein array (RPPA) in MCF-7 tumor xenografts treated with vehicle, MCLA-128, Fulvestrant, Tamoxifen, MCLA-128+ Fulvestrant or MCLA-128+ Tamoxifen. Proteins detected in this assay included (phospho)-Akt and (phospho)-HER3 (full data provided in Appendix 4). One-way ANOVA compared levels in all tumors derived from treatment groups with those derived from the PBS group. ** indicates P<0.01.
# (§2) Tumors from groups 1-6 were collected when they had reached the maximum tolerated volume, or at the end of the experiment at day 39, which was 10 days after the last dose. Per treatment group, six tumors were included in the Reverse phase protein array (RPPA). The selection of tumors was made so that the average tumor size of the 6 specimens was close to that of the whole group. RPPA analysis was performed as follows: tumors were sectioned and placed on immunohistochemistry slides. Stromal and inflammatory content was macrodissected to purify for tumors cells. Protein lysates were prepared and protein content was quantified. […] Reverse phase protein array (RPPA) data were analyzed using one-way ANOVA to detect significant differences between the treatment groups and the vehicle group. […] Total ERK levels were increased in the single agent groups only, no differences were measured in the other groups or in the phosphorylated ERK analysis. […]
# HER2:HER3 dimers = assay: VeraTag assay HER2:HER3 dimers in MCF-7 xenograft tumors; assay type: in vivo, human
# Method: as §5, §6, §4, §7
# HER3 [2] = assay: Reverse phase protein array (RPPA) in MCF-7 tumor xenografts: HER3; assay type: in vivo, human; conditions: vs vehicle group, one-way ANOVA
# Description: as §1, §2
# HER3 [3] = conditions: in vitro and in vivo; cited from earlier work
# Akt = assay: Reverse phase protein array (RPPA) in MCF-7 tumor xenografts: Akt; assay type: in vivo, human; conditions: vs vehicle group, one-way ANOVA; tumors collected at maximum tolerated volume or day 39
# Description: as §1, §2
# phosphorylated HER3 = assay: VeraTag assay phosphorylated HER3 in MCF-7 xenograft tumors; assay type: in vivo, human; conditions: round 1
# Method: as §3, §4
# total HER3 = assay: VeraTag assay total HER3 in MCF-7 xenograft tumors; assay type: in vivo, human; conditions: data from both rounds combined; 8 day treatment
# Method: as §5, §6, §4, §7
# [4] = system: cells stimulated with high concentrations of heregulin (HRG); assay: In vitro potency in heregulin-stimulated cells; assay type: cell-based
# [5] = system: total HER2, total HER3, HER2:HER3 dimers, HER3-PI3K complexes and phosphorylated HER3; assay: VeraTag assays (five assays) on MCF-7 xenograft tumors; assay type: in vivo, human; conditions: round 1, 3 tumors per group
# Method: Xenograft mice were treated for 8 days with a total of 3 doses of MCLA-128 or 2 doses of Fulvestrant or the combination thereof. 24 hours after the last dose, tumors were harvested, processed to FFPE and subjected to VeraTag analysis for the indicated assays. Five independent tumors per treatment group were used for the final analysis. A statistical t-test compared all groups independently. * indicates P<0.01.
# as §3, §4
# [6] = system: human HBCx-34 breast tumor xenograft; assay: Antitumor efficacy in HBCx-34 patient-derived breast cancer xenograft (study XTS-1521); assay type: in vivo, mouse
# Method: Antitumor efficacy of an HER2/HER3 targeting antibody was determined in the context of a combination treatment together with an aromatase inhibitor. […] It was used as single agent and in combination with the aromatase inhibitor Letrozole. The hormone-dependent HBCx-34 patient-derived breast cancer xenograft model established in immunodeficient mice was used as an example of a breast cancer.
# The HBCx-34 PDX model was derived from a treatment-naïve primary breast infiltrating ductal carcinoma.
# Tumor-bearing mice received estrogen diluted in drinking water (β-oestradiol, 8.5 mg/l), from the date of tumor implant to the date of inclusion. During the treatment period, mice were not supplemented with estrogen.
# Tumors of the same passage were transplanted subcutaneously onto 6-24 mice (donor mice, passage (n−1)). When these tumors reached 1000 to 2000 mm^3, donor mice were sacrificed by cervical dislocation, tumors were aseptically excised and dissected. After removing necrotic areas, tumors were cut into fragments measuring approximately 20 mm^3 and transferred in culture medium before grafting.
# 95 mice were anaesthetized with 100 mg/kg ketamine hydrochloride (batch 5D92, Exp: 2017/03, Virbac) and 10 mg/kg xylazine (batch KP0AX9X, Exp: 2017/08, Bayer), and then skin was aseptized with a chlorhexidine solution, incised at the level of the interscapular region, and a 20 mm^3 tumor fragment was placed in the subcutaneous tissue. Skin was closed with clips. All mice from the same experiment were implanted on the same day.
# Treatments were randomly attributed to boxes housing up to 5 mice and were initiated 36 days post implantation of the tumor (42% inclusion rate). The study was terminated following 57 days after the start of treatment.
# Tumor volume was evaluated by measuring tumor diameters, with a calliper, biweekly during the experimental period.
# The formula TV (mm3)=[length (mm)×width (mm)2]/2 was used, where the length and the width are the longest and the shortest diameters of the tumor, respectively.
# A total of 4 groups were used as summarized in the scheme below. Each group initially included 10 mice.
# All treatment doses were body weight adjusted at each injection.
# [7] = MCLA-128 25 mg/kg i.p., Letrozole […] p.o. qdx57
# Method: All animals were weighed biweekly during the experimental period.
# Toxicity of the different treatments was determined as: body weight loss percent (% BWL)=100−(mean BWx/mean BW0×100), where BWx is the mean BW at any day during the treatment and BW0 is the mean BW on the 1st day of treatment.
# [8] = MCLA-128 25 mg/kg IP, Letrozole […] PO qdx57
molecule,measurement,setting,value
C[C@]12CC[C@@H]3c4ccc(O)cc4C[C@@H](CCCCCCCCC[S+]([O-])CCCC(F)(F)C(F)(F)F)[C@H]3[C@@H]1CC[C@@H]2O (stereo partly drawn) [Fulvestrant],HER3-PI3K assay (VeraTag),HER3-PI3K complexes,no significant effect
same,HER2 expression levels (VeraTag),total HER2,significantly higher than in the MCLA-128 single or combined treatment groups; also recorded: significantly higher levels of HER2 expression
same,% TGI (tumor growth inhibition),[1],52%
same,median tumor volume,[1],288 mm3
same,P relative to the control group,[1],< 0.001
same,anti-tumor efficacy / survival benefit (in words),[1],significantly reduced tumor growth
same,Volume (mm^3) of xenograft MCF-7 tumors,[1]; listed as Faslodex®,196 mm^3 (3×) and 172 mm^3 and 144 mm^3
same,Weight (mgs) of xenograft MCF-7 tumors,[1]; listed as Faslodex®,137.9 mgs and 140.1 mgs and 174.4 mgs and 119.7 mgs and 117.3 mgs
same,Total HER2 levels (RPPA),HER2,significantly increased
same,HER2:HER3 dimerization (VeraTag),"HER2:HER3 dimers; data from both rounds combined, 8 day treatment",significantly induced HER2:HER3 dimerization compared to vehicle; also recorded: induces the formation of HER2:HER3 dimers
same,HER2:HER3 dimers (VeraTag),"HER2:HER3 dimers; round 1, 3 tumors per group",significantly upregulated the formation of HER2:HER3 dimers
same,HER3 total levels (RPPA),HER3 [2],significantly increased
same,HER3 expression in MCF-7 cells,HER3 [3],upregulate HER3 expression
same,Total and phosphorylated Akt levels (RPPA),Akt,increased
same,phospho HER3 assay (VeraTag),phosphorylated HER3,no significant effect
same,HER3 expression (VeraTag),total HER3,slight increase in HER3
MCLA-128: ADCC-enhanced IgG1 bispecific antibody that targets the HER2:HER3 dimer,in vitro potency,[4],superior to other anti-HER2 and anti-HER3 antibodies
same,effect in any of the VeraTag assays relative to vehicle,[5],no significant effect
same,Best T/C %,[6]; [8],91.14%
same,Best TGE %,[6]; [8],31.59%
same,T/C % (at control group day end),[6]; [8],101.56%
same,TGI % (at control group day end),[6]; [8],4.87%
same,median TGD × 3 (In days),[6]; [8],48.64 days
same,TFS (Tumor Free Survivor),[6]; number of complete regressions recorded up to Group Day End,0
same,CR (complete regression),[6]; number of mice with 0 to 14 mm^3 tumor size during at least 3 consecutive measurements,0
same,TS (Tumor Stabilization),[6]; number of mice with constant tumor size during at least 6 consecutive measurements,1/9 and 1
same,PR (partial regression),[6]; number of mice with tumor size lower than initial during at least 6 consecutive measurements,1/9 and 1
same,% TGI (tumor growth inhibition),[1],0%
same,median tumor volume,[1],600 mm3
same,P relative to the control group,[1],> 0.05
same,anti-tumor efficacy / survival benefit (in words),[1],no anti-tumor efficacy as a single agent
same,Volume (mm^3) of xenograft MCF-7 tumors,[1],144 mm^3 and 256 mm^3 and 221 mm^3 and 288 mm^3 and 320 mm^3
same,Weight (mgs) of xenograft MCF-7 tumors,[1],120.5 mgs and 98.2 mgs and 135.5 mgs and 134 mgs and 207.7 mgs
same,tolerability (in words),[7],well tolerated
same,maximum individual body weight loss,[7]; day of maximum as in text,8.3%
same,maximum mean body weight loss,[7]; day of maximum as in text,0.4%
